Laboratory results: PubChem BioAssay (NCI)
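Each compound was tested at five concentrations against cells in 96-well plates for 48 hours. GI50 = concentration required for 50% inhibition of growth. TGI is the concentration that stops growth completely.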

Assays:
Test in all cases: NCI tumour cell line growth inhibition, 48 h
HOP-62 NSCLC = test system: HOP-62 NSCLC
MOLT-4 leukemia = test system: MOLT-4 leukemia
SK-MEL-2 melanoma = test system: SK-MEL-2 melanoma
NCI-H23 lung = test system: NCI-H23 lung
OVCAR-3 ovarian = test system: OVCAR-3 ovarian
SF-295 CNS = test system: SF-295 CNS
CAKI-1 renal = test system: CAKI-1 renal
NCI-H522 lung = test system: NCI-H522 lung
UACC-257 melanoma = test system: UACC-257 melanoma
BT-549 breast = test system: BT-549 breast
NCI/ADR-RES ovarian = test system: NCI/ADR-RES ovarian
HL-60(TB) leukemia = test system: HL-60(TB) leukemia
SF-268 CNS = test system: SF-268 CNS
NCI-H226 lung = test system: NCI-H226 lung
SK-MEL-28 melanoma = test system: SK-MEL-28 melanoma
A498 renal = test system: A498 renal
OVCAR-8 ovarian = test system: OVCAR-8 ovarian
UO-31 renal = test system: UO-31 renal
SNB-19 CNS = test system: SNB-19 CNS
SK-OV-3 ovarian = test system: SK-OV-3 ovarian
M14 melanoma = test system: M14 melanoma
MALME-3M melanoma = test system: MALME-3M melanoma
OVCAR-4 ovarian = test system: OVCAR-4 ovarian
U251 CNS = test system: U251 CNS
SNB-75 CNS = test system: SNB-75 CNS
LOX IMVI melanoma = test system: LOX IMVI melanoma
OVCAR-5 ovarian = test system: OVCAR-5 ovarian
IGROV1 ovarian = test system: IGROV1 ovarian
COLO 205 colon = test system: COLO 205 colon
EKVX NSCLC = test system: EKVX NSCLC
HOP-92 NSCLC = test system: HOP-92 NSCLC
CCRF-CEM leukemia = test system: CCRF-CEM leukemia
HCT-15 colon = test system: HCT-15 colon
HS 578T breast = test system: HS 578T breast
TK-10 renal = test system: TK-10 renal
HCC-2998 colon = test system: HCC-2998 colon
A549 NSCLC = test system: A549 NSCLC
MCF7 breast = test system: MCF7 breast
SK-MEL-5 melanoma = test system: SK-MEL-5 melanoma
ACHN renal = test system: ACHN renal
PC-3 prostate = test system: PC-3 prostate
MDA-MB-435 = test system: MDA-MB-435
SW-620 colon = test system: SW-620 colon
786-0 renal = test system: 786-0 renal
RXF 393 renal = test system: RXF 393 renal
SN12C renal = test system: SN12C renal
SR leukemia = test system: SR leukemia
K-562 leukemia = test system: K-562 leukemia
HCT-116 colon = test system: HCT-116 colon
RPMI-8226 leukemia = test system: RPMI-8226 leukemia
DU-145 prostate = test system: DU-145 prostate
KM12 colon = test system: KM12 colon
NCI-H460 lung = test system: NCI-H460 lung
UACC-62 melanoma = test system: UACC-62 melanoma
MDA-MB-231 breast = test system: MDA-MB-231 breast
T-47D breast = test system: T-47D breast
HT29 colon = test system: HT29 colon
SF-539 CNS = test system: SF-539 CNS

CCC(=C/[C@H](C)C/C=C/C(C)=C/[C@@H](C)C(=O)[C@@H](C)[C@H](O)[C@@H](C)CC)/C=C/[C@H]1OC(=O)C=C[C@H]1C
GI50 (HOP-62 NSCLC): < 10 nM
TGI (HOP-62 NSCLC): 1130 nM
GI50 (MOLT-4 leukemia): < 10 nM
GI50 (SK-MEL-2 melanoma): < 10 nM
TGI (SK-MEL-2 melanoma): < 10 nM
GI50 (NCI-H23 lung): < 10 nM
TGI (NCI-H23 lung): 1500 nM
GI50 (OVCAR-3 ovarian): < 10 nM
GI50 (SF-295 CNS): < 10 nM
TGI (SF-295 CNS): 1360 nM
GI50 (CAKI-1 renal): < 10 nM
TGI (CAKI-1 renal): 1800 nM
GI50 (NCI-H522 lung): < 10 nM
TGI (NCI-H522 lung): < 10 nM
GI50 (UACC-257 melanoma): < 10 nM
TGI (UACC-257 melanoma): 1550 nM
GI50 (BT-549 breast): < 10 nM
GI50 (NCI/ADR-RES ovarian): < 10 nM
TGI (NCI/ADR-RES ovarian): 1390 nM
GI50 (HL-60(TB) leukemia): < 10 nM
TGI (HL-60(TB) leukemia): < 40 nM
GI50 (SF-268 CNS): < 10 nM
TGI (SF-268 CNS): 1460 nM
GI50 (NCI-H226 lung): < 10 nM
TGI (NCI-H226 lung): 598 nM
GI50 (SK-MEL-28 melanoma): < 10 nM
TGI (SK-MEL-28 melanoma): 1110 nM
GI50 (A498 renal): < 10 nM
TGI (A498 renal): < 24 nM
GI50 (OVCAR-8 ovarian): < 10 nM
TGI (OVCAR-8 ovarian): 1270 nM
GI50 (UO-31 renal): < 10 nM
TGI (UO-31 renal): 1150 nM
GI50 (SNB-19 CNS): < 10 nM
TGI (SNB-19 CNS): 1290 nM
GI50 (SK-OV-3 ovarian): < 22.1 nM
TGI (SK-OV-3 ovarian): 3440 nM
GI50 (M14 melanoma): < 10 nM
TGI (M14 melanoma): 132 nM
GI50 (MALME-3M melanoma): < 10 nM
GI50 (OVCAR-4 ovarian): < 10 nM
TGI (OVCAR-4 ovarian): 1290 nM
GI50 (U251 CNS): < 10 nM
TGI (U251 CNS): 1350 nM
GI50 (SNB-75 CNS): < 10 nM
TGI (SNB-75 CNS): 85.4 nM
GI50 (LOX IMVI melanoma): < 10 nM
TGI (LOX IMVI melanoma): 1110 nM
GI50 (OVCAR-5 ovarian): < 10 nM
TGI (OVCAR-5 ovarian): 1350 nM
GI50 (IGROV1 ovarian): < 10 nM
TGI (IGROV1 ovarian): 1270 nM
GI50 (COLO 205 colon): < 10 nM
TGI (COLO 205 colon): 68.4 nM
GI50 (EKVX NSCLC): 288 nM
TGI (EKVX NSCLC): 11600 nM
GI50 (HOP-92 NSCLC): < 10 nM
TGI (HOP-92 NSCLC): 722 nM
GI50 (CCRF-CEM leukemia): < 10 nM
TGI (CCRF-CEM leukemia): 9070 nM
GI50 (HCT-15 colon): < 10 nM
TGI (HCT-15 colon): 1170 nM
GI50 (HS 578T breast): < 10 nM
TGI (HS 578T breast): 438 nM
GI50 (TK-10 renal): < 10 nM
TGI (TK-10 renal): 1520 nM
GI50 (HCC-2998 colon): < 10 nM
TGI (HCC-2998 colon): < 10 nM
GI50 (A549 NSCLC): < 10 nM
TGI (A549 NSCLC): 1930 nM
GI50 (MCF7 breast): < 10 nM
TGI (MCF7 breast): 1180 nM
GI50 (SK-MEL-5 melanoma): < 10 nM
TGI (SK-MEL-5 melanoma): 43.7 nM
GI50 (ACHN renal): < 10 nM
TGI (ACHN renal): 1370 nM
GI50 (PC-3 prostate): < 10 nM
TGI (PC-3 prostate): 1570 nM
GI50 (MDA-MB-435): < 10 nM
TGI (MDA-MB-435): 25.6 nM
GI50 (SW-620 colon): < 10 nM
TGI (SW-620 colon): 1900 nM
GI50 (786-0 renal): < 10 nM
TGI (786-0 renal): 642 nM
GI50 (RXF 393 renal): < 10 nM
TGI (RXF 393 renal): < 10 nM
GI50 (SN12C renal): < 10 nM
TGI (SN12C renal): 1360 nM
GI50 (SR leukemia): < 10 nM
GI50 (K-562 leukemia): < 10 nM
TGI (K-562 leukemia): < 10 nM
GI50 (HCT-116 colon): < 10 nM
TGI (HCT-116 colon): 10.2 nM
GI50 (RPMI-8226 leukemia): < 10 nM
TGI (RPMI-8226 leukemia): 42.1 nM
GI50 (DU-145 prostate): < 10 nM
TGI (DU-145 prostate): 2690 nM
GI50 (KM12 colon): < 10 nM
TGI (KM12 colon): 113 nM
GI50 (NCI-H460 lung): < 10 nM
TGI (NCI-H460 lung): 1100 nM
GI50 (UACC-62 melanoma): < 10 nM
TGI (UACC-62 melanoma): 75.5 nM
GI50 (MDA-MB-231 breast): < 10 nM
TGI (MDA-MB-231 breast): 1500 nM
GI50 (T-47D breast): < 10 nM
TGI (T-47D breast): 880 nM
GI50 (HT29 colon): < 10 nM
TGI (HT29 colon): 1200 nM
GI50 (SF-539 CNS): < 10 nM
TGI (SF-539 CNS): 439 nM
